Data from the NIST ThermoML archive (doi:10.1016/j.tca.2011.06.003).

Experiment: xn = mol fraction of the nth substance listed
Conditions: 101 kPa, Liquid; for speed of sound: Sing-around technique in a fixed-path interferometer; for mass density: Vibrating tube method

NCCNCCN [di(2-aminoethyl)amine] + CC(C)O
Conditions | mass density [kg/m3] | speed of sound [m/s] | viscosity [mPa·s]
293.15 K, x1 = 0.0534 | 803.892 | 1206.4 | –
293.15 K, x1 = 0.1022 | 818.972 | 1244.9 | –
293.15 K, x1 = 0.1556 | 830.953 | 1283.2 | –
293.15 K, x1 = 0.2053 | 842.389 | 1318.6 | –
293.15 K, x1 = 0.2541 | 852.667 | 1350.5 | –
293.15 K, x1 = 0.3083 | 863.147 | 1383.9 | –
293.15 K, x1 = 0.4044 | 880.002 | 1438.7 | –
293.15 K, x1 = 0.5025 | 894.43 | 1488.6 | –
293.15 K, x1 = 0.6122 | 909.336 | 1538.2 | –
293.15 K, x1 = 0.711 | 921.252 | 1583.2 | –
293.15 K, x1 = 0.8021 | 930.895 | 1618.9 | –
293.15 K, x1 = 0.8555 | 936.343 | 1638 | –
293.15 K, x1 = 0.9092 | 941.621 | 1658.5 | –
293.15 K, x1 = 0.953 | 945.719 | 1673.3 | –
298.15 K, x1 = 0.0532 | – | – | 2.514
298.15 K, x1 = 0.0534 | 799.63 | 1188.7 | –
298.15 K, x1 = 0.1022 | 814.391 | 1227.2 | 2.884
298.15 K, x1 = 0.1556 | 826.675 | 1265.5 | 3.313
298.15 K, x1 = 0.2053 | 838.104 | 1300.9 | 3.628
298.15 K, x1 = 0.2541 | 848.377 | 1332.6 | 3.97
298.15 K, x1 = 0.3083 | 858.864 | 1365.9 | 4.268
298.15 K, x1 = 0.4044 | 875.743 | 1420.7 | 4.708
298.15 K, x1 = 0.5025 | 890.185 | 1470 | 4.984
298.15 K, x1 = 0.6122 | 905.106 | 1518.9 | 5.192
298.15 K, x1 = 0.711 | 917.035 | 1563.1 | 5.223
298.15 K, x1 = 0.8021 | 926.667 | 1599.5 | 5.286
298.15 K, x1 = 0.8555 | 932.115 | 1618.5 | 5.383
298.15 K, x1 = 0.9092 | 937.389 | 1638.7 | 5.441
298.15 K, x1 = 0.953 | 941.486 | 1653.4 | 5.54
303.15 K, x1 = 0.0532 | – | – | 2.087
303.15 K, x1 = 0.0534 | 795.321 | 1171.2 | –
303.15 K, x1 = 0.1022 | 809.803 | 1209.5 | 2.388
303.15 K, x1 = 0.1556 | 822.362 | 1247.7 | 2.697
303.15 K, x1 = 0.2053 | 833.79 | 1282.9 | 2.976
303.15 K, x1 = 0.2541 | 844.065 | 1314.6 | 3.217
303.15 K, x1 = 0.3083 | 854.559 | 1347.8 | 3.423
303.15 K, x1 = 0.4044 | 871.471 | 1402.2 | 3.721
303.15 K, x1 = 0.5025 | 885.922 | 1452.9 | 3.901
303.15 K, x1 = 0.6122 | 900.866 | 1503.2 | 4.08
303.15 K, x1 = 0.711 | 912.782 | 1543 | 4.184
303.15 K, x1 = 0.8021 | 922.433 | 1579.1 | 4.264
303.15 K, x1 = 0.8555 | 927.887 | 1599 | 4.357
303.15 K, x1 = 0.9092 | 933.158 | 1619 | 4.423
303.15 K, x1 = 0.953 | 937.25 | 1634.5 | 4.47
308.15 K, x1 = 0.0532 | – | – | 1.858
308.15 K, x1 = 0.0534 | 790.957 | 1153.7 | –
308.15 K, x1 = 0.1022 | 805.422 | 1191.8 | 2.064
308.15 K, x1 = 0.1556 | 818.019 | 1230 | 2.315
308.15 K, x1 = 0.2053 | 829.45 | 1265.1 | 2.526
308.15 K, x1 = 0.2541 | 839.731 | 1296.8 | 2.708
308.15 K, x1 = 0.3083 | 850.238 | 1329.7 | 2.875
308.15 K, x1 = 0.4044 | 867.103 | 1383.3 | 3.121
308.15 K, x1 = 0.5025 | 881.653 | 1432.7 | 3.296
308.15 K, x1 = 0.6122 | 896.616 | 1483.5 | 3.442
308.15 K, x1 = 0.711 | 908.535 | 1525.3 | 3.539
308.15 K, x1 = 0.8021 | 918.202 | 1561.5 | 3.608
308.15 K, x1 = 0.8555 | 923.66 | 1580.4 | 3.683
308.15 K, x1 = 0.9092 | 928.927 | 1599.6 | 3.734
308.15 K, x1 = 0.953 | 933.022 | 1615.1 | 3.771
313.15 K, x1 = 0.0534 | 786.529 | 1136.1 | –
313.15 K, x1 = 0.1022 | 801.012 | 1174.3 | –
313.15 K, x1 = 0.1556 | 813.627 | 1212.7 | –
313.15 K, x1 = 0.2053 | 825.068 | 1247.5 | –
313.15 K, x1 = 0.2541 | 835.36 | 1278.6 | –
313.15 K, x1 = 0.3083 | 845.885 | 1311.4 | –
313.15 K, x1 = 0.4044 | 862.786 | 1365.6 | –
313.15 K, x1 = 0.5025 | 877.353 | 1415.7 | –
313.15 K, x1 = 0.6122 | 892.409 | 1467 | –
313.15 K, x1 = 0.711 | 904.278 | 1509.1 | –
313.15 K, x1 = 0.8021 | 913.964 | 1543.4 | –
313.15 K, x1 = 0.8555 | 919.421 | 1562.1 | –
313.15 K, x1 = 0.9092 | 924.691 | 1580.8 | –
313.15 K, x1 = 0.953 | 928.787 | 1595.2 | –
